What was measured:
Test in all cases: Inhibition of tumor cell proliferation (CTG, 6 days)
Assay type in all cases: cell-based, human
NCI-H596 cells = details: FIG. 8
Method: (§1) All the cells were those with high expression of Trop2 antigens. Trodelvy was the tradename of sacituzumab govitecan injector. Sacituzumab was an outsourced anti-Trop2 antibody. All cell lines were cultured in the complete medium at 37° C. with 5% CO2. Cells in the logarithmic growth phase were harvested and then counted using a […], and the cell viability was tested by the trypan blue rejection method to ensure that the cell viability was above 90%. […] The cells in the 96-well plate were cultured at 37° C. with 5% CO2. […] The cells from the dosed 96-well plate were cultured at 37° C. with 5% CO2 for another 6 days, followed by CTG analysis (CTG, a CellTiter-Glo kit, was a homogeneous cell viability assay for quantifying ATP to determine the viability of cultured cells). The CTG reagent was thawed, and the cell plate was equilibrated to room temperature for 30 min. 100 μL of CTG solution was added per well. The cells were shaken on an orbital shaker for 5 min for lysis. The cell plate was treated at room temperature for 20 min to stabilize the cold light signal. The cold light values were read to collect data. […] [formula]

MDA-MB-468 cells = details: FIG. 5
Method: as §1

SNU216 cells = details: FIG. 6
Method: as §1

NCI-H1650 cells = details: FIG. 7
Method: as §1

Question: Which “efficacy (in words)” value (NCI-H596 cells) does the source give for Trodelvy here?
Answer: Its value is “certain efficacy”.

Question: And the “efficacy (in words)” value (MDA-MB-468 cells)?
Answer: The value was “superior to Sacituzumab”.

Question: And the “efficacy (in words)” value (SNU216 cells)?
Answer: The value was “superior to Sacituzumab”.

Question: What about the “efficacy (in words)” value (NCI-H1650 cells) of the same substance?
Answer: The value was “superior to Sacituzumab”.

Source: US20240350650A1, “LINKER AND CONJUGATE THEREFOR” (BEIJING HOPE PHARMACEUTICAL CO.LTD., priority 2021, published 2024)
